Experimental data from patent US20140094461A1, “BIOMARKERS FOR HEDGEHOG INHIBITOR THERAPY” (priority 2011, published 2014).

Assays:
[1] = system: medulloblastoma; experiment: Phase I dose escalation trial, adult medulloblastoma patients: clinical response; assay type: in vivo, human
Description: Adult cancer patients including patients with medulloblastoma, were enrolled into an ongoing phase I, dose escalation trial of methyl-4′-trifluoromethoxy-biphenyl-3-carboxylic acid [6-(cis-2,6-dimethyl-morpholin-4-yl)-pyridin-3-yl]-amide to evaluate safety and tolerability of methyl-4′-trifluoromethoxy-biphenyl-3-carboxylic acid [6-(cis-2,6-dimethyl-morpholin-4-yl)-pyridin-3-yl]-amide and assess maximally tolerated dose of methyl-4′-trifluoromethoxy-biphenyl-3-carboxylic acid [6-(cis-2,6-dimethyl-morpholin-4-yl)-pyridin-3-yl]-amide for adult patients. Archival FFPE tumor specimens collected prior to the start of the trial are available for analysis by the method of the invention from 3 enrolled medulloblastoma patients in this trial.
Based on the 8-gene and 5-gene predictive model, the method of the invention was used to determine the Hedgehog activation status in tumor for these 3 patients. The two responders were determined to have Hedgehog-activated tumor while the tumor from the non-responder was called non-Hedgehog-activated. In addition, the single genes, SPHK1, OTX2, SFRP1, PDLIM3, or SHROOM2 were each used to determine the Hedgehog activation status based on the pre-established cut-off for each of the genes. By each of the single gene, the same Hedgehog-activated and non-Hedgehog-activated calls were made to the two responders and one non-responder, respectively. Among the 3 patients, only one patient had adequate tumor tissue samples available for additional mutational analysis of the PTCH1 and SMO gene. […] Inactivating PTCH1 mutations have been identified as a major mechanism of constitutively activating Hedgehog pathway in medulloblastoma. Therefore, identification of this PTCH1 mutation provides a mechanistic basis for Hedgehog pathway activation and observed clinical activity against Hedgehog signaling inhibitor in this patient and further validates the finding by the method of the invention.

[2] = system: basal cell carcinoma (BCC); experiment: Phase I dose escalation trial, adult BCC patients with PTCH or SMO mutations: clinical response; assay type: in vivo, human
Description: In addition to the Hedgehog-activated medulloblastoma, basal cell carcinoma (BCC) is another cancer type that is mostly driven by mutations or genetic lesions of the Hedgehog pathway genes that lead to constitutive activation of the Hedgehog pathway. […] In an ongoing phase I, dose escalation trial of methyl-4′-trifluoromethoxy-biphenyl-3-carboxylic acid [6-(cis-2,6-dimethyl-morpholin-4-yl)-pyridin-3-yl]-amide, an Hedgehog signaling inhibitor antagonizing SMO, adult BCC patients were enrolled among patients with other solid tumors. Mutational analysis of PTCH1 and SMO by directly sequencing was performed to the archival tumor specimens collected at the time of diagnosis from the enrolled BCC patients. […] The method of the invention was used to determine the Hedgehog activation status of BCC tumors from these patients. With both the 5-gene and 8-gene models, the probability score of all 6 cases were above the pre-specified cut-off and therefore all were called Hedgehog-activated. Among these 6 patients, 2 achieved confirmed partial response on methyl-4′-trifluoromethoxy-biphenyl-3-carboxylic acid [6-(cis-2,6-dimethyl-morpholin-4-yl)-pyridin-3-yl]-amide treatment, 2 had stable disease for more than 6 month, and the other 2 patients discontinued methyl-4′-trifluoromethoxy-biphenyl-3-carboxylic acid [6-(cis-2,6-dimethyl-morpholin-4-yl)-pyridin-3-yl]-amide due to adverse events after less than 2 months of therapy which might be too brief to observe any clinical activities. […] The method of the invention can be used for identifying other types of tumor with the same underlining Hedgehog-mutation driven etiology that might preferentially benefit from a Hedgehog signaling inhibitor therapy.

[3] = medulloblastoma patient 1, daily dose of 200 mg

Cc1c(C(=O)Nc2ccc(N3C[C@@H](C)O[C@@H](C)C3)nc2)cccc1-c1ccc(OC(F)(F)F)cc1 [methyl-4′-trifluoromethoxy-biphenyl-3-carboxylic acid [6-(cis-2,6-dimethyl-morpholin-4-yl)-pyridin-3-yl]-amide]
time of treatment until progression ([1]; 3rd medulloblastoma patient, daily dose of 200 mg): 52 days
clinical outcome ([1]; 3rd medulloblastoma patient, daily dose of 200 mg, non-Hedgehog-activated tumor): progressed rapidly
duration of response before disease progression [1, 3]: 4 months
time of treatment until partial response [1, 3]: 2 months
tumor response by the RECIST criteria ([1]; medulloblastoma patient 1, daily dose of 200 mg, Hedgehog-activated tumor): partial response (PR)
response measured by positron emission tomography (PET) ([1]; metastatic medulloblastoma patient without measurable lesion, 1500 mg daily dose, Hedgehog-activated tumor, PTCH1 mutation): metabolic partial response
duration of metabolic partial response before disease relapse ([1]; metastatic medulloblastoma patient, 1500 mg daily dose): 7 months
number of patients with stable disease for more than 6 month ([2]; of 6 BCC patients with PTCH or SMO mutations): 2 patients
number of patients with confirmed partial response ([2]; of 6 BCC patients with PTCH or SMO mutations, all called Hedgehog-activated): 2 patients
number of patients who discontinued due to adverse events ([2]; of 6 BCC patients, after less than 2 months of therapy): 2 patients
